Several values for one entry are separate records, joined by “and”; a condition that tells them apart may be missing. Equal values may be shown once. Toxic doses and inconclusive results are not listed.
Test system: P388 leukemia ip, CD2F1 mice, survival T/C
Experiment: NCI In Vivo Anticancer Drug Screen. Data for tumor model P388 Leukemia (intraperitoneal) in CD2F1 (CDF1) mice
Details: endpoint: median survival time, higher = longer survival
Outline: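 Mice carrying the transplanted tumor received test compound or vehicle. Survival was recorded in each group, and the value is the treated-group measurement divided by that of the vehicle-treated control group.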

[1] = dose: 50.0 mg/kg/injection, schedule: Q01DX005 (ip), vehicle: saline with Tween-80
[2] = dose: 100.0 mg/kg/injection, schedule: Q01DX005 (ip), vehicle: saline with Tween-80
[3] = dose: 200.0 mg/kg/injection, schedule: Q01DX005 (ip), vehicle: saline with Tween-80
[4] = dose: 50.0 mg/kg/injection, schedule: Q01DX009 (ip), vehicle: saline
[5] = dose: 100.0 mg/kg/injection, schedule: Q01DX009 (ip), vehicle: saline
[6] = dose: 200.0 mg/kg/injection, schedule: Q01DX009 (ip), vehicle: saline
[7] = dose: 100.0 mg/kg/injection, schedule: Q04DX003 (ip), vehicle: saline
[8] = dose: 50.0 mg/kg/injection, schedule: Q01DX009 (ip), vehicle: Klucel (hydroxypropylcellulose) (HPC)
[9] = dose: 100.0 mg/kg/injection, schedule: Q01DX009 (ip), vehicle: Klucel (hydroxypropylcellulose) (HPC)
[10] = dose: 6.25 mg/kg/injection, schedule: Q01DX009 (ip), vehicle: saline
[11] = dose: 12.5 mg/kg/injection, schedule: Q01DX009 (ip), vehicle: saline
[12] = dose: 25.0 mg/kg/injection, schedule: Q01DX009 (ip), vehicle: saline

SMILES: CCOC(=O)Nc1cc2c(c(N)n1)N=C(c1ccc3ccccc3c1)CN2
- T/C (dose: 5.0 mg/kg/injection, schedule: Q01DX005 (ip), vehicle: saline with Tween-80): 153 % of control
- T/C (dose: 7.5 mg/kg/injection, schedule: Q01DX005 (ip), vehicle: saline with Tween-80): 165 % of control
- T/C (dose: 10.0 mg/kg/injection, schedule: Q01DX005 (ip), vehicle: saline with Tween-80): 166 % of control and 168 % of control

SMILES: CCNc1ccc(C(=O)c2cccc(N)c2)cc1N
- T/C (dose: 60.0 mg/kg/injection, schedule: Q01DX005 (ip), vehicle: saline with Tween-80): 96 % of control
- T/C (dose: 120.0 mg/kg/injection, schedule: Q01DX005 (ip), vehicle: saline with Tween-80): 96 % of control
- T/C (dose: 240.0 mg/kg/injection, schedule: Q01DX005 (ip), vehicle: saline with Tween-80): 89 % of control

SMILES: COc1cc2c(cc1OC)-c1cccc3c1N(CC2)CC3
- T/C (dose: 25.0 mg/kg/injection, schedule: Q04DX002 (ip), vehicle: saline with Tween-80): 100 % of control
- T/C (dose: 50.0 mg/kg/injection, schedule: Q04DX002 (ip), vehicle: saline with Tween-80): 98 % of control
- T/C (dose: 100.0 mg/kg/injection, schedule: Q04DX002 (ip), vehicle: saline with Tween-80): 100 % of control

SMILES: O=C1c2cccc([N+](=O)[O-])c2C(=O)N1CC[P+](c1ccccc1)(c1ccccc1)c1ccccc1
- T/C (dose: 0.78 mg/kg/injection, schedule: Q01DX009 (ip), vehicle: water): 97 % of control
- T/C (dose: 1.56 mg/kg/injection, schedule: Q01DX009 (ip), vehicle: water): 100 % of control
- T/C (dose: 3.13 mg/kg/injection, schedule: Q01DX009 (ip), vehicle: water): 94 % of control
- T/C (dose: 6.25 mg/kg/injection, schedule: Q01DX009 (ip), vehicle: water): 97 % of control
- T/C (dose: 12.5 mg/kg/injection, schedule: Q01DX009 (ip), vehicle: water): 95 % of control
- T/C (dose: 25.0 mg/kg/injection, schedule: Q01DX009 (ip), vehicle: water): 100 % of control
- T/C (dose: 50.0 mg/kg/injection, schedule: Q01DX009 (ip), vehicle: water): 109 % of control
- T/C (dose: 100.0 mg/kg/injection, schedule: Q01DX009 (ip), vehicle: water): 107 % of control

SMILES: O=C([O-])c1c[n+]2c(cc1C(=O)O)-c1cc3c(cc1CC2)OCO3
- T/C (dose: 0.63 mg/kg/injection, schedule: Q01DX009 (ip), vehicle: distilled water + Tween-80): 99 % of control
- T/C (dose: 1.25 mg/kg/injection, schedule: Q01DX009 (ip), vehicle: distilled water + Tween-80): 94 % of control
- T/C (dose: 2.5 mg/kg/injection, schedule: Q01DX009 (ip), vehicle: distilled water + Tween-80): 94 % of control
- T/C (dose: 5.0 mg/kg/injection, schedule: Q01DX009 (ip), vehicle: distilled water + Tween-80): 94 % of control
- T/C (dose: 10.0 mg/kg/injection, schedule: Q01DX009 (ip), vehicle: distilled water + Tween-80): 99 % of control
- T/C (dose: 20.0 mg/kg/injection, schedule: Q01DX009 (ip), vehicle: distilled water + Tween-80): 100 % of control

SMILES: CCO/C(C)=C(/C(C)=O)C(=O)NC1CCCCC1
- T/C (dose: 100.0 mg/kg/injection, schedule: Q01DX009 (ip), vehicle: saline with Tween-80): 95 % of control
- T/C (dose: 200.0 mg/kg/injection, schedule: Q01DX009 (ip), vehicle: saline with Tween-80): 90 % of control
- T/C (dose: 400.0 mg/kg/injection, schedule: Q01DX009 (ip), vehicle: saline with Tween-80): 90 % of control

SMILES: O=C1NC(=O)C(c2ccccc2)(c2ccccc2)C2CC3c4[nH]c5ccccc5c4CCN3CC12 (stereo not given)
- T/C (dose: 25.0 mg/kg/injection, schedule: Q01DX001 (ip), vehicle: saline): 117 % of control
- T/C (dose: 50.0 mg/kg/injection, schedule: Q01DX001 (ip), vehicle: saline): 88 % of control
- T/C (dose: 100.0 mg/kg/injection, schedule: Q01DX001 (ip), vehicle: saline): 114 % of control and 90 % of control

SMILES: C[Si]1(C)N[Si](C)(C)N([Si](C)(C)C)[Si](C)(C)N1
- T/C [1]: 93 % of control
- T/C [2]: 101 % of control
- T/C [3]: 109 % of control

SMILES: CN1CCN(c2ccncc2S(=O)(=O)N2CCN(C)CC2)CC1
- T/C [4]: 97 % of control
- T/C [5]: 97 % of control
- T/C [6]: 87 % of control

SMILES: Cc1c(-c2ccncc2)nc2ccccc2c1C(=O)O
- T/C [1]: 100 % of control
- T/C [2]: 100 % of control
- T/C [3]: 97 % of control

SMILES: Cn1c(=O)c2c(nc(Cl)n2Cc2ccc([N+](=O)[O-])cc2)n(C)c1=O
- T/C [7]: 95 % of control
- T/C (dose: 200.0 mg/kg/injection, schedule: Q04DX003 (ip), vehicle: saline): 92 % of control
- T/C (dose: 400.0 mg/kg/injection, schedule: Q04DX003 (ip), vehicle: saline): 90 % of control

SMILES: c1ccc2c(c1)ccc1c2c[n+](CCCCCCCC[n+]2cc3c4ccccc4ccc3c3ccccc32)c2ccccc12
- T/C (dose: 0.78 mg/kg/injection, schedule: Q01DX009 (ip), vehicle: distilled water + Tween-80): 172 % of control
- T/C (dose: 1.56 mg/kg/injection, schedule: Q01DX009 (ip), vehicle: distilled water + Tween-80): 163 % of control
- T/C (dose: 3.13 mg/kg/injection, schedule: Q01DX009 (ip), vehicle: distilled water + Tween-80): 204 % of control
- T/C (dose: 6.25 mg/kg/injection, schedule: Q01DX009 (ip), vehicle: distilled water + Tween-80): 209 % of control

SMILES: CC1C2CCC3C(O)C2(CC(O)C2(O)C1CC(O)C2(C)C)CC3(C)O (stereo not given)
- T/C (dose: 0.25 mg/kg/injection, schedule: Q01DX009 (ip), vehicle: Klucel (hydroxypropylcellulose) (HPC)): 101 % of control
- T/C (dose: 0.5 mg/kg/injection, schedule: Q01DX009 (ip), vehicle: Klucel (hydroxypropylcellulose) (HPC)): 93 % of control
- T/C (dose: 1.0 mg/kg/injection, schedule: Q01DX009 (ip), vehicle: Klucel (hydroxypropylcellulose) (HPC)): 95 % of control

SMILES: C=C1CC2(CCOc3ccc(Cl)cc32)OC1=O (stereo not given)
- T/C (dose: 25.0 mg/kg/injection, schedule: Q04DX003 (ip), vehicle: saline with Tween-80): 110 % of control
- T/C (dose: 50.0 mg/kg/injection, schedule: Q04DX003 (ip), vehicle: saline with Tween-80): 118 % of control
- T/C (dose: 100.0 mg/kg/injection, schedule: Q04DX003 (ip), vehicle: saline with Tween-80): 101 % of control and 116 % of control
- T/C (dose: 200.0 mg/kg/injection, schedule: Q04DX003 (ip), vehicle: saline with Tween-80): 101 % of control

SMILES: CC(C)CSc1nc2ccc(NC(=O)/C=C/C(=O)O)cc2s1
- T/C [8]: 95 % of control
- T/C [9]: 95 % of control

SMILES: Cc1[nH]nc2c(=O)n(C)cnc12
- T/C (dose: 25.0 mg/kg/injection, schedule: Q01DX005 (ip), vehicle: water): 100 % of control
- T/C (dose: 50.0 mg/kg/injection, schedule: Q01DX005 (ip), vehicle: water): 94 % of control
- T/C (dose: 100.0 mg/kg/injection, schedule: Q01DX005 (ip), vehicle: water): 92 % of control
- T/C (dose: 200.0 mg/kg/injection, schedule: Q01DX005 (ip), vehicle: water): 93 % of control
- T/C (dose: 400.0 mg/kg/injection, schedule: Q01DX005 (ip), vehicle: water): 91 % of control

SMILES: CCOC(CSc1ncnc2nc[nH]c12)OCC
- T/C [4]: 100 % of control
- T/C [5]: 96 % of control
- T/C [6]: 112 % of control

SMILES: [CH3][Ge]([CH3])([Cl])[c]1cc[c]([Ge]([CH3])([CH3])[Cl])cc1
- T/C (dose: 3.12 mg/kg/injection, schedule: Q01DX009 (ip), vehicle: saline): 96 % of control
- T/C [10]: 94 % of control
- T/C [11]: 113 % of control and 92 % of control
- T/C [4]: 110 % of control
- T/C (dose: 50.0 mg/kg/injection, schedule: Q04DX003 (ip), vehicle: saline): 118 % of control
- T/C [7]: 89 % of control

SMILES: COC(=O)CS(=O)(=O)CCS(=O)(=O)CC(=O)OC
- T/C [11]: 99 % of control and 100 % of control
- T/C [12]: 94 % of control and 98 % of control
- T/C [4]: 99 % of control and 124 % of control and 98 % of control
- T/C [5]: 103 % of control and 104 % of control and 113 % of control
- T/C [6]: 114 % of control

SMILES: CC1=C(C)C2(C)S(=O)Nc3ccccc3C12C (stereo not given)
- T/C (dose: 60.0 mg/kg/injection, schedule: Q01DX005 (ip), vehicle: Klucel (hydroxypropylcellulose) (HPC)): 99 % of control
- T/C (dose: 120.0 mg/kg/injection, schedule: Q01DX005 (ip), vehicle: Klucel (hydroxypropylcellulose) (HPC)): 99 % of control
- T/C (dose: 240.0 mg/kg/injection, schedule: Q01DX005 (ip), vehicle: Klucel (hydroxypropylcellulose) (HPC)): 87 % of control

SMILES: CCN(CC)C(=O)c1c(C(=O)OC)c(C)n(NC(N)=O)c1C
- T/C [1]: 105 % of control
- T/C [2]: 107 % of control
- T/C [3]: 108 % of control

SMILES: CNNCCCCC(=O)NC(C)C
- T/C (dose: 25.0 mg/kg/injection, schedule: Q01DX009 (ip), vehicle: Klucel (hydroxypropylcellulose) (HPC)): 97 % of control
- T/C [8]: 98 % of control
- T/C [9]: 97 % of control

SMILES: Cc1ccc2c(c1)C=CC(C#N)N2C(=O)Oc1ccccc1 (stereo not given)
- T/C [10]: 99 % of control and 101 % of control
- T/C [11]: 98 % of control
- T/C [12]: 93 % of control and 96 % of control

Reference: PubChem BioAssay AID330 (DTP/NCI, 2004)
